Common to all, as to format: in vivo, rat
The subject of data set [1] is Sprague-Dawley rats. As to the kind of experiment: Behavioral thermoregulation in a temperature gradient (selected Ta, core temperature, motor activity) after NT77. The method, then:
Male rats of the Sprague-Dawley strain at 60 days of age were obtained from Charles River Laboratories (Raleigh, N.C.). The animals were housed individually in acrylic cages lined with wood shavings at an ambient temperature (Ta) of 22° C., relative humidity of 50%, and a 12 hour light:12 hour dark photoperiod (lights were turned on at 6 a.m. and turned off at 6 p.m.). Core temperature and motor activity were monitored in undisturbed rats using radio telemetry (Data Sciences International, St. Paul, Minn.). Details of the telemetry system are described in Gordon, C. J., 24-hour control of body temperature in the rat: I. Integration of behavioral and autonomic effectors, Am. J. Physiol. 267, […]-[…], 1994. Briefly, rats were anesthetized with sodium pentobarbital (50 mg/kg; intraperitoneally) and an incision was made for the implantation of the transmitter (TAIOTA-F40) into the abdominal cavity. The abdominal muscle was sutured and the skin was closed with wound clips. […] The behavioral thermoregulatory response to NT77 was assessed by measuring selected ambient temperature (Selected Ta) of the unrestrained rats when housed in a temperature gradient (Gordon, C. J., 24-hour control of body temperature in the rat: I. Integration of behavioral and autonomic effectors, Am. J. Physiol. 267, […]-[…], 1994). Rats were placed in a temperature gradient and allowed to behaviorally select from a range of ambient temperatures (Ta) while core temperature (Tc) was monitored by radiotelemetry. Selected Ta, core temperature (Tc), and motor activity were monitored at 1 minute intervals. […] Selected Ta was measured by photocells positioned at 10 cm intervals that detected the position of the rat in the gradient and automatically compared the position to the air temperature measured by thermocouples placed immediately outside the wire-mesh cage. Motor activity was calculated by measuring the change in position of the rat in the gradient at 1 minute intervals. […] The behavioral and core temperature data were recorded at 1 minute intervals throughout the experiment. […]

For data set [2], the system named is Sprague-Dawley rats. Briefly: Metabolism and heat loss in a direct calorimeter after NT77. Particulars: 5.0 mg/kg i.p.; data not shown. The method, then:
Oxygen consumption and dry heat loss were measured in naive rats implanted with radiotransmitters and housed in a direct calorimeter. The internal dimensions of the calorimeter were 30.5 cm×30.5 cm×30.5 cm. The calorimeter was used to measure the rate of dry heat loss (i.e., thermal conductance) from the rats using thermoelectric sensors in the calorimeter walls. The calorimeter was housed inside a temperature-controlled chamber maintained at 23.5° C. The inside of the calorimeter was dimly illuminated with LED lights (total power=0.2 Watts). […]
A mass flow controller was used to meter dry air at a constant flow rate (2.7 liters/minute; STP) into the calorimeter. […] Percent oxygen, dry heat loss, air flow rate, and calorimeter temperature were monitored at 1 minute intervals by a data acquisition system (Dianachart PC acquisitor). […] (W/C) was calculated by dividing the value of dry heat loss at 1 minute intervals by the difference between core and ambient temperature. […]
A naive rat was placed in the wire-mesh cage which was then placed inside the calorimeter at approximately 9 a.m. […] After 115 minutes, the percent oxygen of the inflowing air was measured for another 5 minutes for calibration purposes but the rat was not disturbed. […]

Data set [3] concerns Sprague-Dawley rats resuscitated from asphyxial cardiac arrest. Briefly: Morris Water Maze on days 10-14 after ROSC (NT69L). The method, then: On days 10-14 after ROSC, the rats were accessed for performance in a Morris Water Maze (MWM). Evaluation was begun on day 10 to ensure that there was complete recovery from anesthesia and the surgical procedures based on prior pilot studies (data not shown). A six foot diameter round pool was filled with water (26° C.) to a depth of 20 cm, 1 cm above an 11-cm diameter clear glass escape platform. The escape platform was invisible to a swimming rat and was placed in the northeast quadrant of the pool. The pool had large visible and distinct geometric shapes placed in a north, south, east, and west distribution on the side of the pool wall so that a swimming rat could easily visualize the orientation markers. The pool was situated in a room with black walls and ceiling to minimize external distractions for the rats. Rats were initially placed in the pool (without the escape platform) for 2 minutes to become acclimatized to the new swimming environment. The rats were then placed on the escape platform for 30 seconds to allow for self orientation in the pool. Next, the rats were randomly placed in each of the four geographic outer regions of the pool and their travel path, swim speed, and time required to locate the hidden platform (latency time) were recorded. Rats performed four swim trials on each day with a maximum swim time of 2 minutes, at which time the trial was terminated if a rat was unable to locate the platform. A 3-minute rest period was provided between trials. In addition to the rats that sustained cardiac arrest (n=16), nine sham rats were surgically instrumented and allowed to recover for ten days before being assessed for performance in the MWM.
(§1) Physiological variables (arterial blood gas, glucose, and MAP) between groups were compared by a one-way analysis of variance (ANOVA). All values were reported as means±standard deviation unless otherwise stated. A one-way analysis of variance (ANOVA) was used to determine the between-group differences in latency time for finding the platform during the MWM on day 14. When an overall significant difference was found, a Tukey post-hoc analysis was used to determine specific between-group differences. Performances on the MWM (learning curve) between days 10 and 14 were compared between groups by a repeated measure ANOVA. Neurological deficit scores between groups were assessed by Kruskal-Wallis analysis. For all analyses, alpha was set at a p<0.05 level of significance.

For data set [4] the test system is unchanged. Briefly: Neurological deficit score 14 days after ROSC (NT69L). The method, then: A final neurological deficit score (NDS) was performed 14 days after ROSC by an evaluator blinded to the insult and therapeutic intervention. Rats were tested for coordination (balance beam walk placing test, depth perception, righting reflex) and for motor and sensory function as described in Katz et al., Outcome model of asphyxial cardiac arrest in rats, J. Cereb. Blood Flow Metab., 1995, 15:1032-1039. The NDS includes a range from 0 (indicating normal) to 100 (indicating brain dead).
as §1

Data set [5] shares this test system.
Source text: Sixteen male Sprague-Dawley rats (Harlan; Madison, Wis.) weighing 300±50 grams were randomized to a control group (saline) or treatment group (NT69L) after resuscitation from asphyxial cardiac arrest. The outcome model of asphyxial cardiac arrest in rats was used to induce the cerebral insult in all rats (Katz et al., Outcome model of asphyxial cardiac arrest in rats, J. Cereb. Blood Flow Metab., 1995, 15:1032-1039). Under titrated inhaled isoflurane anesthesia, brain telemetric probes (Mini-Mitter; Sunriver, Oreg.) were implanted three days before the cerebral insult. […] On the day of the cerebral insult, rats were again anesthetized with inhaled isoflurane anesthesia, intubated, and mechanically ventilated. A tail artery was cannulated for continuous blood pressure monitoring and blood gas analysis, while the jugular vein was cannulated for intravenous drug administration. Intravenous vecuronium (2 mg/kg intravenous) and cessation of mechanical ventilation were used to induce apneic asphyxia. Asphyxia led to cardiac arrest (i.e., mean arterial pressure (MAP)<10 mm Hg and a pulse pressure of 0 mm Hg) within approximately 3 minutes; the cardiac arrest was maintained until resuscitation. Eight minutes after asphyxia, the rats were resuscitated with mechanical ventilation (100% oxygen), 0.005 mg/kg intravenous epinephrine, and chest compressions until a mean arterial pressure of 60 mm Hg was produced and maintained by a spontaneously beating heart for more than 10 seconds. Immediately after restoration of spontaneous circulation (ROSC), the rats were placed in an incubator that maintained an ambient temperature of 31.6° C. […] Ten minutes after ROSC, NT69L (0.5 mg/kg) […] or saline 3 mL/kg was administered intravenously. The ventilator was adjusted to normalize temperature-corrected arterial carbon dioxide before the insult and for two hours after ROSC. Two hours after ROSC, spontaneously breathing rats were extubated and maintained in the incubator for 24 hours. Rats were handled daily after the experiment and had free access to food and water.
as §1

In data set [6] the test system is free-roaming, unanesthetized rats. Briefly: Pilot: brain temperature of free-roaming unanesthetized rats without cardiac arrest given NT69L. The settings on record: no cardiac arrest, room temperature 23° C., i.v. As for the experimental part:
In separate pilot experiments, four rats were instrumented for placement of temperature probes and intravenous catheters as described above. Three days after recovery from anesthesia, NT69L was administered intravenously to two free-roaming, unanesthetized rats at room temperature (23° C.). In the same environment and at the same time, two rats were given a similar volume of saline for comparison.

[7] abbreviates: one NT69L group rat, day 14 after resuscitation.
Where [8] appears, read: intravenously after resuscitation from cardiac arrest.
[9] abbreviates: NT69L 0.5 mg/kg i.v., ambient 31.6° C.

Where a SMILES comes first, the peptide text is derived from it. Where no end group is shown, it is not given here. [ ]: non-standard residue; d: D form. Ala(indol-4-yl) = N[C@@H](Cc1cccc2[nH]ccc12)C(=O)O; NMeR = CN[C@@H](CCCNC(=N)N)C(=O)O; Tle = CC(C)(C)[C@H](N)C(=O)O; dOrn = NCCC[C@@H](N)C(=O)O; neo‑Trp = not defined here

For the compound `CC(C)C[C@H](NC(=O)[C@@H](NC(=O)[C@H](Cc1cccc2[nH]ccc12)NC(=O)[C@@H]1CCCN1C(=O)[C@@H](CCCN)NC(=O)[C@@H](N)CCCNC(=N)N)C(C)(C)C)C(=O)O` [NT77] (H-R[dOrn]P[Ala(indol-4-yl)][Tle]L-OH), the “effect on motor activity” value in data set [1] (5.0 mg/kg i.p., temperature gradient) is on record as “no effect”. Moreover, the “core temperatures and selected Ta's during the night after treatment” value in data set [1] (5.0 mg/kg i.p., data not shown) is reported as “normal”. In data set [1] (day after treatment, saline 1.6%), the “loss of initial body weight” value is listed as 2.4%. In data set [2], the “effect on motor activity in the calorimeter” value is given as “no discernable effect”.
For the compound “NT69L: neurotensin analog, SEQ ID NO: 16, positions 8-13: N-methyl-Arg, L-Lys, L-Pro, L-neo-Trp, tert-Leu, L-Leu ([NMeR]KP[neo‑Trp][Tle]L; reading uncertain)”, the “latency time in Morris Water Maze” value in data set [3] (fourteen days after ROSC, control 45±26, sham 10±3) is 22 ± 8 s. Besides, in data set [3] (setting [7]), the “distance traveled, sample path of one rat (FIG. 1)” value is 225 cm and the “latency time, sample path of one rat (FIG. 1)” value came out at 9 s. The “rates of change of latency time over days 10-14 versus control” value in data set [3] (p=0.15 repeated-measures ANOVA) is “no difference”. For the same compound, the “swimming speed during MWM testing” value in data set [3] (sham 27±2, control 25±1) was determined as 26 ± 1 cm/s. Moreover, the “neurological deficit score (NDS)” value in data set [4] (14 days after ROSC, 0 normal to 100 brain dead, control 30±10) came out at 3±3. In addition, the “neurological outcome (conclusion)” value in data set [4] (setting [8]) was “improved neurological outcome”. In data set [5] (NT69L 0.5 mg/kg i.v.), the “duration of mild hypothermia (mean)” value was 300 ± 100 min, the “duration of mild hypothermia (median)” value amounted to 367 min and the “duration of mild hypothermia (range)” value lay in the range of 20 to 400 min. Further, in data set [5] (setting [9]), the “time until brain temperature dropped below 35° C. after administration (mean)” value was 13+3 minutes and the “time until brain temperature dropped below 35° C. after administration (range)” value is 8 to 15 min. The “rats with ROSC that survived 14 days” value in data set [5] (each group, same as control) is recorded as “Seven out of eight”. Further, in data set [5] (setting [8]), the “hypothermia produced (conclusion)” value is “rapid and prolonged mild hypothermia”. For the same compound, the hypotension produced entry in data set [5] (rat, in vivo) is “mild and transient”. Also, the “brain temperature versus saline rats” value in data set [6] is “drop in brain temperature”.

The values above are taken from patent publication US7319090B2, “Methods of treating cerebral ischemia” (University of North Carolina at Chapel Hill, priority 2002, dated 2008).
